In PubChem BioAssay AID328 (DTP/NCI, 2004):
“And” between values parts separate entries of the source, which are not always exact repeats. Equal entries are not always repeated. Inconclusive results and toxic doses are left out.

Test system: BDF1 mice, P388 leukemia ip, median survival T/C
Assay: NCI In Vivo Anticancer Drug Screen. Data for tumor model P388 Leukemia (intraperitoneal) in B6D2F1 (BDF1) mice
Conditions: endpoint: median survival time, higher = longer survival
Method in brief: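 Each value expresses how treatment altered survival: treated-mouse outcome over vehicle-mouse outcome, both groups bearing the transplanted tumour.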

[1] = dose: 100.0 mg/kg/injection, schedule: Q01DX009 (ip), vehicle: saline with Tween-80
[2] = dose: 200.0 mg/kg/injection, schedule: Q01DX009 (ip), vehicle: saline with Tween-80
[3] = dose: 400.0 mg/kg/injection, schedule: Q01DX009 (ip), vehicle: saline with Tween-80
[4] = dose: 100.0 mg/kg/injection, schedule: Q01DX009 (ip), vehicle: Klucel (hydroxypropylcellulose) (HPC)
[5] = dose: 100.0 mg/kg/injection, schedule: Q04DX003 (ip), vehicle: Klucel (hydroxypropylcellulose) (HPC)
[6] = dose: 200.0 mg/kg/injection, schedule: Q01DX009 (ip), vehicle: Klucel (hydroxypropylcellulose) (HPC)
[7] = dose: 200.0 mg/kg/injection, schedule: Q04DX003 (ip), vehicle: Klucel (hydroxypropylcellulose) (HPC)
[8] = dose: 400.0 mg/kg/injection, schedule: Q01DX009 (ip), vehicle: Klucel (hydroxypropylcellulose) (HPC)
[9] = dose: 400.0 mg/kg/injection, schedule: Q04DX003 (ip), vehicle: Klucel (hydroxypropylcellulose) (HPC)
[10] = dose: 50.0 mg/kg/injection, schedule: Q04DX003 (ip), vehicle: saline with Tween-80
[11] = dose: 100.0 mg/kg/injection, schedule: Q04DX003 (ip), vehicle: saline with Tween-80
[12] = dose: 200.0 mg/kg/injection, schedule: Q04DX003 (ip), vehicle: saline with Tween-80
[13] = dose: 100.0 mg/kg/injection, schedule: Q04DX003 (ip), vehicle: saline
[14] = dose: 200.0 mg/kg/injection, schedule: Q04DX003 (ip), vehicle: saline
[15] = dose: 400.0 mg/kg/injection, schedule: Q04DX003 (ip), vehicle: saline
[16] = dose: 25.0 mg/kg/injection, schedule: Q01DX009 (ip), vehicle: saline with Tween-80
[17] = dose: 50.0 mg/kg/injection, schedule: Q01DX009 (ip), vehicle: saline with Tween-80
[18] = dose: 100.0 mg/kg/injection, schedule: Q01DX009 (ip), vehicle: saline
[19] = dose: 200.0 mg/kg/injection, schedule: Q01DX009 (ip), vehicle: saline
[20] = dose: 400.0 mg/kg/injection, schedule: Q01DX009 (ip), vehicle: saline
[21] = dose: 50.0 mg/kg/injection, schedule: Q01DX009 (ip), vehicle: saline + alcohol
[22] = dose: 25.0 mg/kg/injection, schedule: Q01DX009 (ip), vehicle: Klucel (hydroxypropylcellulose) (HPC)

For `O=C(O)C1CCC(=O)N1C(=O)OCc1ccccc1` (stereo unspecified), the T/C [1] was 90 % of control, the T/C [2] was 90 % of control and the T/C [3] was 95 % of control.

For `OCCCNc1cccc2ccccc12`, the T/C [4] was 105 % of control, the T/C [5] was 100 % of control and the T/C [6] was 100 % of control. For the same compound, the T/C [7] was 100 % of control, the T/C [8] was 110 % of control and the T/C [9] was 100 % of control.

`c1ccc([P+](CCCCCCCCCC[P+](c2ccccc2)(c2ccccc2)c2ccccc2)(c2ccccc2)c2ccccc2)cc1` was tested, and the T/C (dose: 2.5 mg/kg/injection, schedule: Q01DX010 (ip), vehicle: saline) was 100 % of control and the T/C (dose: 5.0 mg/kg/injection, schedule: Q01DX010 (ip), vehicle: saline) was 109 % of control.

With `Cc1c(Cl)cccc1NC(=O)Oc1ccc(Cl)cc1Cl` the T/C [10] was 109 % of control, the T/C [11] was 122 % of control and the T/C [12] was 113 % of control.

With `CC(O)COCc1ccccc1` (stereo unspecified) the T/C [13] was 100 % of control, the T/C [14] was 87 % of control and the T/C [15] was 108 % of control.

`CCN1C=NNc2ccc(Cl)cc2C1=O` was tested, and the T/C [11] was 97 % of control, the T/C [12] was 97 % of control and the T/C (dose: 400.0 mg/kg/injection, schedule: Q04DX003 (ip), vehicle: saline with Tween-80) was 100 % of control.

With `CC1CC(O)C2C3(C)CCCC2(COC3=O)C12CCC1(CCOC1=O)O2` (stereo unspecified) the T/C (dose: 0.13 mg/kg/injection, schedule: Q01DX009 (ip), vehicle: saline) was 112 % of control, the T/C (dose: 0.25 mg/kg/injection, schedule: Q01DX009 (ip), vehicle: saline) was 104 % of control and the T/C (dose: 0.5 mg/kg/injection, schedule: Q01DX009 (ip), vehicle: saline) was 93 % of control. The T/C (dose: 1.0 mg/kg/injection, schedule: Q01DX009 (ip), vehicle: saline) was 104 % of control.

In the case of `COC(=O)c1ccc(CBr)cc1`, the T/C [16] was 103 % of control, the T/C (dose: 25.0 mg/kg/injection, schedule: Q04DX003 (ip), vehicle: saline with Tween-80) was 100 % of control and the T/C [17] was 92 % of control. The T/C [10] was 91 % of control and the T/C [11] was 100 % of control.

`COC(=O)C/C(=C/C=C1/C(=O)ON=C1C)c1c(C)[nH]oc1=O` was tested, and the T/C [18] was 90 % of control, the T/C [19] was 100 % of control and the T/C [20] was 95 % of control.

`CC(=O)OC1CCC2(C)C(CC(=O)C(C)C2(O)CCc2ccoc2)C1(C)C` (stereo unspecified) was tested, and the T/C (dose: 25.0 mg/kg/injection, schedule: Q01DX009 (ip), vehicle: saline + alcohol) was 91 % of control, the T/C [21] was 112 % of control and the T/C (dose: 100.0 mg/kg/injection, schedule: Q01DX009 (ip), vehicle: saline + alcohol) was 112 % of control.

With `COc1ccccc1/C=N\NC(C)=O` the T/C [22] was 96 % of control, the T/C (dose: 25.0 mg/kg/injection, schedule: Q04DX003 (ip), vehicle: Klucel (hydroxypropylcellulose) (HPC)) was 86 % of control and the T/C (dose: 50.0 mg/kg/injection, schedule: Q01DX009 (ip), vehicle: Klucel (hydroxypropylcellulose) (HPC)) was 107 % of control. For the same compound, the T/C [4] was 92 % of control and the T/C [5] was 86 % of control.

`CCCCOB=O` was tested, and the T/C [11] was 109 % of control and the T/C [12] was 100 % of control.

With `CSC(=S)N/N=C(\C)C1CCCC[N-]1.[Cl][Zn][Cl]` (stereo unspecified) the T/C (dose: 12.5 mg/kg/injection, schedule: Q01DX009 (ip), vehicle: saline with Tween-80) was 105 % of control, the T/C [16] was 119 % of control and the T/C [17] was 118 % of control.

With `CCOC(=O)c1c[nH]c2cc(Cl)ccc2c1=O` the T/C (dose: 75.0 mg/kg/injection, schedule: Q04DX003 (ip), vehicle: Klucel (hydroxypropylcellulose) (HPC)) was 96 % of control.

For `C[C@]12CC[C@@H]3c4ccc(O)cc4CC[C@H]3[C@@H]1CC[C@@H]2OC(=O)CCC1CCCC1`, the T/C [4] was 100 % of control, the T/C [5] was 104 % of control and the T/C [6] was 95 % of control. The T/C [7] was 104 % of control, the T/C [8] was 104 % of control and the T/C [9] was 104 % of control.

`CCOC(=O)c1cnc(SC)nc1NCc1ccccc1Cl` was tested, and the T/C [4] was 100 % of control, the T/C [6] was 100 % of control and the T/C [8] was 100 % of control.

`O=C(O)C(CSC(c1ccccc1)c1ccccc1)N1C(=O)c2ccccc2C1=O` (stereo unspecified) was tested, and the T/C (dose: 50.0 mg/kg/injection, schedule: Q04DX003 (ip), vehicle: Klucel (hydroxypropylcellulose) (HPC)) was 100 % of control, the T/C [5] was 104 % of control and the T/C [7] was 95 % of control.

`O=C(c1ccccc1)c1c(-c2ccccc2)c(C(=O)c2ccccc2)c2ccccc2c1Cl` was tested, and the T/C (dose: 12.5 mg/kg/injection, schedule: Q01DX009 (ip), vehicle: water) was 102 % of control, the T/C (dose: 25.0 mg/kg/injection, schedule: Q01DX009 (ip), vehicle: water) was 113 % of control and the T/C (dose: 25.0 mg/kg/injection, schedule: Q04DX003 (ip), vehicle: water) was 114 % of control. The T/C (dose: 50.0 mg/kg/injection, schedule: Q01DX009 (ip), vehicle: water) was 102 % of control, the T/C (dose: 50.0 mg/kg/injection, schedule: Q04DX003 (ip), vehicle: water) was 104 % of control and the T/C (dose: 100.0 mg/kg/injection, schedule: Q01DX009 (ip), vehicle: water) was 109 % of control. The T/C (dose: 100.0 mg/kg/injection, schedule: Q04DX003 (ip), vehicle: water) was 96 % of control, the T/C (dose: 200.0 mg/kg/injection, schedule: Q01DX009 (ip), vehicle: water) was 96 % of control and the T/C (dose: 200.0 mg/kg/injection, schedule: Q04DX003 (ip), vehicle: water) was 100 % of control. For the same compound, the T/C (dose: 400.0 mg/kg/injection, schedule: Q01DX009 (ip), vehicle: water) was 102 % of control and the T/C (dose: 400.0 mg/kg/injection, schedule: Q04DX003 (ip), vehicle: water) was 98 % of control.

`O=C(Nc1cccc2cccnc12)C12CC3CC(CC(C3)C1)C2` was tested, and the T/C [17] was 96 % of control, the T/C [1] was 96 % of control and the T/C [2] was 100 % of control.

For `Cc1cc(N)c(C)c([N+](=O)[O-])c1`, the T/C [17] was 100 % of control, the T/C [1] was 100 % of control and the T/C [2] was 95 % of control.

For `COc1ccc(C(O)c2ccccc2C(=O)Nc2ccccc2)cc1` (stereo unspecified), the T/C [1] was 90 % of control and the T/C [2] was 100 % of control.

In the case of `COc1cc2ccc(CN3CCCC3C(=O)OCc3ccccc3)cc2cc1OC` (stereo unspecified), the T/C [1] was 100 % of control, the T/C [13] was 109 % of control and the T/C [2] was 104 % of control. The T/C [14] was 118 % of control, the T/C [3] was 116 % of control and the T/C [15] was 100 % of control.

With `CC1(C)OC(=O)CC(=O)O1` the T/C [18] was 105 % of control, the T/C [13] was 91 % of control and the T/C [19] was 100 % of control. For the same compound, the T/C [14] was 91 % of control and the T/C [15] was 100 % of control.

For `CCCCCCCCCCCCCCCCN(C)CCO`, the T/C [21] was 97 % of control.

In the case of `CCO/C=C1\SC(=S)N(c2ccccc2C)C1=O`, the T/C (dose: 8.8 mg/kg/injection, schedule: Q04DX003 (ip), vehicle: saline with Tween-80) was 100 % of control, the T/C (dose: 13.2 mg/kg/injection, schedule: Q04DX003 (ip), vehicle: saline with Tween-80) was 104 % of control and the T/C (dose: 20.0 mg/kg/injection, schedule: Q04DX003 (ip), vehicle: saline with Tween-80) was 100 % of control. The T/C [22] was 101 % of control, the T/C (dose: 30.0 mg/kg/injection, schedule: Q04DX003 (ip), vehicle: saline with Tween-80) was 104 % of control and the T/C (dose: 88.0 mg/kg/injection, schedule: Q04DX003 (ip), vehicle: saline with Tween-80) was 122 % of control. For the same compound, the T/C (dose: 300.0 mg/kg/injection, schedule: Q04DX003 (ip), vehicle: saline with Tween-80) was 163 % of control.

For `C=CCOCCO`, the T/C [18] was 112 % of control, the T/C [13] was 91 % of control and the T/C [19] was 112 % of control. The T/C [14] was 95 % of control, the T/C [20] was 100 % of control and the T/C [15] was 108 % of control.

`CN(C)c1ccc(Nc2c3ccccc3nc3ccccc23)cc1` was tested, and the T/C (dose: 36.0 mg/kg/injection, schedule: Q01DX010 (ip), vehicle: saline) was 159 % of control and 172 % of control, the T/C (dose: 54.0 mg/kg/injection, schedule: Q01DX010 (ip), vehicle: saline) was 159 % of control and 172 % of control and the T/C (dose: 80.0 mg/kg/injection, schedule: Q01DX010 (ip), vehicle: saline) was 213 % of control and 218 % of control. For the same compound, the T/C (dose: 120.0 mg/kg/injection, schedule: Q01DX010 (ip), vehicle: saline) was 268 % of control.
